Experimental data from patent US20180171411A1, “GFRalpha1 AS A BIOMARKER FOR CISPLATIN-INDUCED CHEMORESISTANCE AND METASTASIS” (THE BOARD OF REGENTS OF THE UNIVERSITY OF TEXAS SYSTEM, priority 2015, published 2018).

Key:
Format in all cases: cell-based, human
[1] = test system: GFRα1-overexpressing MG-63 clone #4; test: Colony-forming assay in the presence of cisplatin; conditions: cisplatin 20 μM 10 days; 3-MA (10 μM), Baf (100 nM), CQ (30 μg/ml)
From the text: FIG. 3. […] Scale bar, 20 μm. […] Scale bar, 20 μm. […] Scale bar, 20 μm.

[2] = test system: Src/AMPK signaling in MG-63 cells; test: Immunoblot of Src/AMPK/mTOR signaling; conditions: cisplatin 20 μM, 24 hr
Protocol: FIG. 4. GFRα1 regulates autophagy by Src/AMPK signaling in osteosarcoma cells. (a-b) Immunoblot analysis of osteosarcoma cell lysates with antibodies specific for GFRα1, p-Src, Src, p-AMPK, AMPK, p-mTOR, mTOR, p-p70 S6Kinase, Beclin 1, HMGB1, LC3, and β-actin. (a) MG-63 and cells were treated with cisplatin (20 μM) for 24 hr. (b) Control and GFRα1-deficient MG-63 cells were treated with cisplatin (20 μM) for 24 hr. (c-e) Immunoblot analysis of osteosarcoma cell lysates with antibodies specific for GFRα1, p-Src, Src, p-AMPK, AMPK, LC3, and β-actin. (c) Control and Src-deficient MG-63 cells were treated with cisplatin (20 μM) for 24 hr. (d) MG-63 cells were cultured in the presence or absence of PP1 (5 μM) and then treated with cisplatin (20 μM) for 24 hr. (e) MG-63 cells were cultured in the presence or absence of Compound C and then treated with cisplatin (20 μM) for 24 hr. (f) Cell viability of MG-63 cells after cisplatin treatment in the presence of PP1. MG-63 cells were cultured with DMSO or PP1 (2, 5 μM) and then treated with cisplatin (20 μM) for 24 hr. Cell viability was measured using the WST-1 assay. The values are represented as a mean±s.d.m. (n=3). ** denotes p<0.05 by t-test. (g) Cell viability of MG-63 cells after cisplatin treatment in the presence of Compound C. MG-63 cells were cultured with DMSO or Compound C (5, 10 μM) and then treated with cisplatin (20 μM) for 24 hr. Cell viability was measured using the WST-1 assay. The values are represented as a mean±s.d.m. (n=3). ** denotes p<0.05 by t-test.
Immunoblotting. Cells were washed with PBS and lysed in RIPA Buffer (Pierce, Rockford, Ill.). The protein content was determined using a dye-binding microassay (Bio-Rad, Hercules, Calif.), and 10-50 μg protein per lane was electrophoresed on 4-12% SDS polyacrylamide gels. Proteins were blotted onto Hybond ECL membranes (Amersham Pharmacia Biotech, Piscataway, N.J.). Two protein ladders were used for molecular weight determination (GenDEPOT, Barker, Tex.). The blotted proteins were detected using an enhanced chemiluminescence detection system (iNtRON, Seoul, Korea). Data were quantified and analyzed with Image-J software.

[3] = test system: GDNF mRNA in MG-63 and U-2 OS cells; test: PCR of GDNF mRNA expression after cisplatin; conditions: 10 and 20 μM of cisplatin, 24 h
Protocol: FIG. 7. GFRα1-mediated chemoresistance of osteosarcoma cells is independent of GDNF. (a) Quantitative real-time PCR of GDNF mRNA expression after cisplatin treatment. MG-63 and U-2 OS cells were treated with different concentrations of cisplatin for 24 h. (b-d) Cell viability was measured using the WST-1 assay. The values are represented as a mean±s.d.m. (n=3). (b) MG-63 cells were treated with PBS or GDNF (50 ng/ml) for 24 h. (c) Control and GFRα1-overexpressing cells were cultured and treated with PBS or GDNF for 24 h. (d) Control and GFRα1-overexpressing cells were treated and cultured with PBS only, Cisplatin, or Cisplatin+GDNF (50 ng/ml) for 24 h, respectively. […] Representative images of RFP-LC3 and GFP-LC3 puncta. Scale bar, 20 μm. Control and GFRα1-overexpressing MG-63 cells were transiently transfected with an RFP-GFP tandem fluorescent-tagged LC3 (RFP-GFP-LC3) and then treated with PBS (top two panels) or cisplatin (20 μM; bottom two panes) for 24 h. […] (f) Quantitative analysis of the number of yellow puncta and the number of RFP-LC3 puncta in the combined images of Control and GFRα1-overexpressing MG-63 cells treated with GDNF. […]
Semi-quantitative RT-PCR. […]

MG-63 cells = test: WST-1 cell viability of MG-63 cells; conditions: GDNF 50 ng/ml, 24 h
Protocol: FIG. 4. GFRα1 regulates autophagy by Src/AMPK signaling in osteosarcoma cells. (a-b) Immunoblot analysis of osteosarcoma cell lysates with antibodies specific for GFRα1, p-Src, Src, p-AMPK, AMPK, p-mTOR, mTOR, p-p70 S6Kinase, Beclin 1, HMGB1, LC3, and β-actin. (a) MG-63 and cells were treated with cisplatin (20 μM) for 24 hr. (b) Control and GFRα1-deficient MG-63 cells were treated with cisplatin (20 μM) for 24 hr. (c-e) Immunoblot analysis of osteosarcoma cell lysates with antibodies specific for GFRα1, p-Src, Src, p-AMPK, AMPK, LC3, and β-actin. (c) Control and Src-deficient MG-63 cells were treated with cisplatin (20 μM) for 24 hr. […] Cell viability was measured using the WST-1 assay. […] Cell viability was measured using the WST-1 assay. […]
FIG. 7. […] (a) Quantitative real-time PCR of GDNF mRNA expression after cisplatin treatment. […] (b-d) Cell viability was measured using the WST-1 assay. […] (f) Quantitative analysis of the number of yellow puncta and the number of RFP-LC3 puncta in the combined images of Control and GFRα1-overexpressing MG-63 cells treated with GDNF. […]
Cell viability assays. […] Cell viability was determined by measuring the absorbance after adding WST-1. The spectrophotometric absorbance of the samples was measured using an Ultra Multifunctional Microplate Reader (Tecan, Durham, N.C.) at 450 nm. […]

Molecule: Cn1cnc(N)c2ncnc1-2 [3-MA, 3-methyladenine]
- number of colonies [1]: effectively reduced

Molecule: N.N.[Cl][Pt][Cl] [cisplatin, Cis-Diamineplatinum(II) dichloride]
- level of phosphorylated AMPK [2]: increased
- level of phosphorylated S6K (P70-S6Kinase) [2]: decreased
- level of phosphorylated Src [2]: increased
- level of phosphorylated mTOR [2]: decreased
- GDNF mRNA expression [3]: increase

B1: GDNF: glial cell line-derived neurotrophic factor, the major ligand of GFRα1 (protein, UniProt P39905 78-211, looked up)
Glial cell line-derived …: SPDKQMAVLPRRERNRQAAAANPENSRGKGRRGQRGKNRGCVLTAIHLNVTDLGLGYETKEELIFRYCSGSCDAAETTYDKILKNLSRNRRLVSDKVGQACCRPIAFDDDLSFLDDNLVYHILRKHSAKRCGCI
- cell proliferation of MG-63 cells (MG-63 cells): no effect
